From patent US5214054A, “Azacyclic carboxylic acid derivatives and their preparation and use” (Novo Nordisk A/S, priority 1988, dated 1993)
Where a name gives a salt, the structure may show the parent alone.

Columns and labels:
[^3 H]-GABA uptake = in vitro inhibition of [^3 H]-GABA uptake; assay type: biochemical; settings: Male Wistar rat cortical tissue, 60 min, 30° C., pH 7.5, ligand 0.2 nM
Protocol: The in vitro inhibition of [^3 H]-GABA uptake was assessed essentially by the method of Fjalland (Acta Pharmacol. Toxicol. 42 (1978) 73-76). Male Wistar rat cortical tissue was gently homogenized by hand using a glass teflon homogenizer in 10 volumes of 0.32M sucrose. Incubation was performed in a 40 mM tris HCl buffer (pH 7.5 at 30° C.) containing […], […], 4 mM MgSO4, 2.3 mM CaCl2 and 10 mM glucose, for 60 min. at 30° C. Ligand concentration was 0.2 nM.

GABA uptake = settings: background art; cited from earlier work
[1] = background art; cited from earlier work

| Structure (SMILES) | IC50 ([^3 H]-GABA uptake) [nM] | inhibition of GABA re-uptake / uptake (in words) (GABA uptake) | ability to cross the blood-brain barrier (in words) [1] |
| --- | --- | --- | --- |
| Cc1ccsc1C(=NOCCN1CCC[C@@H](C(=O)O)C1)c1sccc1C [Example 3, (R)-Bis(3-methyl-2-thienyl)methanone O-[2-(3-carboxypiperidin-1-yl)ethyl]oxime hydrochloride] | 30 |  |  |
| Cc1ccsc1C(=NOCCN1CCC[C@@H](C(=O)O)C1)c1cccs1 [Example 5, (R)-(3-Methyl-2-thienyl)-(2-thienyl)methanone O-[2-(3-carboxypiperidin-1-yl)ethyl]oxime] | 64 |  |  |
| O=C(O)C1CCCN(CCON=C(c2ccccc2)c2ccccc2)C1 (centres unmarked) [Example 25, Diphenylmethanone O-[2-(3-carboxypiperidin-1-yl)ethyl]oxime hydrochloride] | 138 |  |  |
| O=C(O)[C@@H]1CCCN(CCON=CC(c2ccccc2)c2ccccc2)C1 [Example 83, E/Z-(R)-2,2-Diphenylacetaldehyde O-[2-(3-carboxy-piperidin-1-yl)ethyl]oxime hydrochloride] | 217 |  |  |
| O=C(O)C1CCCN(CCC=C(c2ccccc2)c2ccccc2)C1 (centres unmarked) [SK&F 89976A, N-(4,4-diphenyl-3-buten-1-yl)nipecotic acid] |  | oral inhibitors of GABA uptake |  |
| O=C(O)C1=CCCN(CCC=C(c2ccccc2)c2ccccc2)C1 [SK&F 100330A, N-(4,4-diphenyl-3-buten-l-yl)guvacine] |  | oral inhibitors of GABA uptake |  |
| O=C(O)CC1CCN(CCC=C(c2ccccc2)c2ccccc2)C1 (stereo not drawn) [SK&F 100561, N-(4,4-diphenyl-3-buten-1-yl)homo-β-proline] |  | oral inhibitors of GABA uptake |  |
| O=C(O)C1CCCN(CCC=C(c2ccccc2)c2cccs2)C1 (centres unmarked) [SK&F 100604J, N-(4-phenyl-4-(2-thienyl)-3-buten-1-yl)nipecotic acid] |  | oral inhibitors of GABA uptake |  |
| O=C(O)C1CCCNC1 (centres unmarked) [piperidine-3-carboxylic acid] |  | potent inhibitor of GABA re-uptake | unable to cross the blood-brain b arrier |

Now from value to compound, other results behind:

| IC50 ([^3 H]-GABA uptake) [nM] | Structure (SMILES) | inhibition of GABA re-uptake / uptake (in words) (GABA uptake) | ability to cross the blood-brain barrier (in words) [1] |
| --- | --- | --- | --- |
| 82 | O=C(O)[C@@H]1CCCN(CCON=C(c2ccccc2)c2ccccc2)C1 [Example 1, (R)-Diphenylmethanone O-[2-(3-carboxypiperidin-1-yl)ethyl]oxime] |  |  |
| 44 | Cc1ccccc1C(=NOCCN1CCC[C@@H](C(=O)O)C1)c1sccc1C [Example 2, (R)-(2-Methylphenyl)-(3-methyl-2-thienyl)methanone O-[2-(3-carboxypiperidin-1-yl)ethyl]oxime hydrochloride] |  |  |
| 52 | CCc1ccccc1C(=NOCCN1CCC[C@@H](C(=O)O)C1)c1sccc1C [Example 4, (R)-(2-Ethylphenyl)-(3-methyl-2-thienyl)methanone O-[2-(3-carboxypiperidin-1-yl)ethyl]oxime hydrochloride] |  |  |
| 58 | Cc1ccccc1C(=NOCCN1CCCC(C(=O)O)C1)c1sccc1C (centres unmarked) [Example 26, (2-Methylphenyl)-(3-methyl-2-thienyl)methanone O-[2-(3-carboxypiperidin-1-yl)ethyl]oxime hydrochloride] |  |  |
| 48 | O=C(O)C1=CCCN(CCON=C(c2ccccc2)c2ccccc2)C1 [Example 45, Diphenylmethanone O-[2-(3-carboxy-1,2,5,6-tetrahydropyridin-1-yl)ethyl]oxime] |  |  |
| 59 | Cc1ccsc1C(=NOCCN1CCC=C(C(=O)O)C1)c1sccc1C [Example 46, Bis(3-methyl-2-thienyl)methanone O-[2-(3-carboxy-1,2,5,6-tetrahydropyridin-1-yl)ethyl]oxime hydrochloride] |  |  |
| 51 | Cc1ccsc1C(=NOCCN1CCC[C@H](C(=O)O)C1)c1sccc1C [Example 47, (S)-Bis(3-methyl-2-thienyl)methanone O-[2-(3-carboxypiperidin-1-yl)ethyl]oxime hydrochloride] |  |  |
